Read-outs that look alike come from different tables or passages of the source. Bounds are passed on as bounds.

5 compounds from patent US5164391A, “Hydantoin derivatives for treating complications of diabetes and circulatory diseases” (priority 1989, dated 1992) can be followed below.

One test concerns the target aldose reductase (Rattus norvegicus, UniProt P07943). The test can be described thus: Inhibition to aldose reductase (method of Kador et al). The conditions noted are these: read-out: IC50 (50% Inhibitory Concentration). In kind it is biochemical. From the text:
An ability for reducing or inhibiting activity of aldose reductase was checked, in accordance with the method of Kador et al as described in "Biophys.

A further test has as its system platelet. The test can be described thus: Inhibition of platelet agglutination (rat PRP). In kind it is cell-based. The procedure: A blood was taken from a descending aorta of the rat anesthetized with ethyl ether. To the blood, 3.8% aqueous sodium citrate was added by a volume of 1/3 and the resulting solution was centrifuged (1500 rpm) at 4° C. for 10 minutes to obtain a supernatant which was designated as "PRP (platelet rich plasma)". The remaining residue was centrifuged (3000 rpm) at 4° C. for 10 minutes to obtain a supernatant which was designated as "PPP (platelet poor plasma)". A stirrer bar and PRP (267 μl) were inserted in a cell and PPP (more than 300 μl) was charged in another cell. A transmissivity to PRP and PPP was measured and set as "0%" for the former case and as "100%" for the latter case.
After a preincubation for 1 minute, a compound to be tested was added by 3 μl and then an agglutination causing substance (collagen or ADP) was added by 30 μl at a time lapsed of 1 minute from the addition of testing compound. For a control group, 3 μl of dimethylsulfoxide was added, instead of the testing compound. A maximum value in transmissivity change after the addition of agglutination causing substance was determined and made as a platelet agglutination rate (%).

The subject of the next test is thoracic aorta. Put plainly: Action to the aorta of guinea pig (relaxation of contracted spiral samples). The conditions noted are these: Cavia porcellus, 37° C. Also on record: species or system Hartley guinea pigs. From the text: Hartley guinea pigs (body weight of 300-500 g) were rendered unconscious fainted by knocking their head and fixed upwardly. A thoracic aorta was taken out to prepare spiral samples, each having size of about 2×25 mm. The sample was suspended in a Magnus tube under a load of about 1 g and upper end of the sample was connected through a silk thread to a FD pick-up to record a change in isometric tension.
Composition of Krebs-Henseleit solution:
Prior to the experiment, the sample in the Magnus tube was left to stand, as it was, for 60 to 90 minutes and in such period of time, the Krebs-Henseleit solution was exchanged to fresh one at an interval of 20 to 30 minutes.
When the contraction of the sample became constant, the compound to be tested was gradually added in a amount starting at a concentration of 10^-8, to […] to observe the contraction of the sample. Finally, papaverine was added therein, so as to make its final concentration of 2×10^-5 g/ml, to check and record also the relaxing reaction or atony caused by the papaverine.

A further test concerns right atrium. The test can be described thus: Action to heart of guinea pig: right atrium (pulsations).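 On all read-outs here: Dash means no recognizable influence on pulsation rate.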 Also on record: species or system Hartley guinea pigs. The conditions noted are these: right atrium, 32°±1° C.; for inhibition at 100 µM / inhibition at 10 µM: Cavia porcellus, read-out: Pulsation. The procedure: (§1) Hartley guinea pigs (body weight of 300-400 g) were rendered unconscious by knocking their head and fixed upwardly to exenterate their heart. […] The vessel was previously filled with the Krebs-Henseleit solution and the said mixed gas was continuously fed therein.
(§2) Samples were prepared by separating from a ventricular muscle a right and left atrium, along an auricloventricular furrow or groove from the center-line of the right and left auricles.
A contraction of the sample, due to a compound to be tested, was recorded through an FD pick-up. Concurrently, pulsations were input to a measuring unit to count and record number of the pulsations.

In the next test the test system is left atrium. Put plainly: Action to heart of guinea pig: left atrium (contraction power). Also on record: species or system Hartley guinea pigs. The note with it: left atrium, 32°±1° C. The procedure:
as §1, §2
The atrium was driven by contacting it with a platinum bipolar electrode attached to the cellfin and by stimulating the same with a rectangular pulse (1 Hz, 1 msec, 10 V). A movement of the sample was recorded by connecting the sample to a recorder through a silk thread and a FD pick-up.

Test [1] concerns blood pressure and cardiac pulsation. Put plainly: Influences upon the blood pressure and cardiac pulsation in guinea pigs. The note with it: i.v. It counts as in vivo, Hartley guinea pigs. From the text: Influences of compounds according to the invention upon the blood pressure and cardiac pulsation were checked with use of Hartley guinea pigs, as experimental animal.
Setting [2] is: agglutination caused by ADP, N.D. : not detected, read-out: IC50 ADP.
[3] abbreviates: agglutination caused by collagen, read-out: IC50 Collagen.
Where [4] appears, read: contraction by KCl 2.5×10^-2 M, read-out: IC50 KCl contraction (50% relaxing).
Setting [5] is: contraction by norepinephrine 10^-6 g/ml, read-out: IC50 N.E. contraction (50% relaxing).
The mark [6] stands for this setting: Cavia porcellus, 10^-4 (M), read-out: Contraction.
Setting [7] is: 10 mg/kg, Example 17 marked (*) p < 0.001.
[8] abbreviates: 10 mg/kg, Examples 16 and 17 marked (*) p < 0.001.

Take `O=C1NC(=O)[C@@]2(C[C@@H](C(=O)NCCN3CCN(C(c4ccccc4)c4ccccc4)CC3)Oc3ccc(F)cc32)N1` [Example 10, (2S,4S)-N-{2-[4-(Diphenylmethyl)piperazin-1-yl]ethyl}-6-fluoro-2',5'-dioxospiro[chroman-4,4'-imidazolidine]-2-carboxamide]: the IC50 at aldose reductase is 0.15 µM; with platelet (setting [2]), 700 µM; in the test with platelet (setting [3]), 410 µM; with thoracic aorta (setting [4]), 1.8 µM; in the test with thoracic aorta (setting [5]) it was 100 µM. Also, the inhibition at 100 µM in the test on right atrium (10^-4 (M)) was > 20%. Also, in the test with right atrium (10^-5 (M)), the inhibition at 10 µM fell in the range of 10 to 20%. Moreover, the Contraction entry with left atrium (10^-4 (M)) and in the test on left atrium (10^-5 (M)) was “-” each time.
With `O=C1NC(=O)[C@@]2(C[C@@H](C(=O)NCCN3CCC(Cc4ccccc4)CC3)Oc3ccc(F)cc32)N1` [Example 11, (2S,4S)-N-[2-(4-Benzylpiperidin-1-yl)ethyl]-6-fluoro-2'5'-dioxospiro[chroman-4,4'-imidazolidine]-2-carboxamide], the IC50 at aldose reductase amounted to 1.9 µM; in the test with platelet (setting [2]), 370 µM; with platelet (setting [3]), 83 µM; in the test with thoracic aorta (setting [4]) it was 1.9 µM; in the test on thoracic aorta (setting [5]) it was 0.1 µM. Also, the inhibition at 100 µM in the test with right atrium (10^-4 (M)) was > 20%; in the test on left atrium (setting [6]), 10 to 20%. Moreover, the inhibition at 10 µM in the test on right atrium (10^-5 (M)) fell in the range of 10 to 20%. For the same compound, the Contraction result in the test on left atrium (10^-5 (M)) is given as “-”.
Consider `NC(=O)[C@@H]1C[C@]2(NC(=O)N(CCCN3CCC(O)CC3)C2=O)c2cc(F)ccc2O1` [Example 15, (2S,4S)-1'-[3-(4-Hydroxypiperidin-1-yl)propyl]-6-fluoro-2',5'-dioxospiro[chroman-4,4'-imidazolidine]-2-carboxamide], for which the results for the IC50 in the test on thoracic aorta (setting [4]) and in the test on thoracic aorta (setting [5]) were 8 µM and 2 µM, respectively. The Pulsation entry with right atrium (10^-4 (M)) and with right atrium (10^-5 (M)) was “-” throughout. Further, the Contraction result in the test with left atrium (10^-4 (M)) and in the test with left atrium (10^-5 (M)) was “-” each time. Besides, the “Change in blood pressure” value in test [1] (3 mg/kg) is -2.6 ± 1.8%; in test [1] (setting [8]), -12.2 ± 5.6%. Besides, the “Change in cardiac pulsation” value was 0.0 ± 0.0% in test [1] (3 mg/kg) and -5.4 ± 2.9% in test [1] (setting [7]).
In the case of `CCNC(=O)[C@@H]1C[C@]2(NC(=O)N(CCCN3CCC(O)CC3)C2=O)c2cc(F)ccc2O1` [Example 16, (2S,4S)-N-Ethyl-1'-[3-(4-hydroxypiperidin-1-yl)propyl]-6-fluoro-2',5'-dioxospiro[chroman-4,4'-imidaxolidine]-2-carboxamide], the IC50 was 59 µM in the test with thoracic aorta (setting [4]) and 5 µM with thoracic aorta (setting [5]). In addition, the Pulsation entry in the test with right atrium (10^-5 (M)) is “-”. Also, the inhibition at 100 µM with right atrium (10^-4 (M)) was 10 to 20%. Further, the Contraction entry in the test with left atrium (10^-4 (M)) and in the test on left atrium (10^-5 (M)) was “-” throughout. For the same compound, the “Change in blood pressure” value was -4.0 ± 4.0% in test [1] (3 mg/kg) and -21.3 ± 2.4% in test [1] (setting [8]). Also, the results for the “Change in cardiac pulsation” value in test [1] (3 mg/kg) and in test [1] (setting [7]) were -1.2 ± 1.2% and -4.7 ± 4.6%, respectively.
In the case of `CCCCNC(=O)[C@@H]1C[C@]2(NC(=O)N(CCCN3CCC(O)CC3)C2=O)c2cc(F)ccc2O1` [Example 17, (2S,4S)-N-Butyl-1'-[3-(4-hydroxypiperidin-1-yl)propyl]-6-fluoro-2',5'-dioxospiro[chroman-4,4'-imidazolidine]-2-carboxamide], the IC50 in the test on thoracic aorta (setting [4]) stood at 1 µM; in the test on thoracic aorta (setting [5]), 30 µM. The Pulsation result with right atrium (10^-5 (M)) was “-”. The inhibition at 100 µM in the test on right atrium (10^-4 (M)) is 10 to 20%; with left atrium (setting [6]), > 20%. In addition, in the test with left atrium (Cavia porcellus, 10^-5 (M), read-out: Contraction), the inhibition at 10 µM was 10 to 20%. The “Change in blood pressure” value in test [1] (3 mg/kg) is -3.0 ± 3.0%; in test [1] (setting [8]) it was -43.8 ± 4.9%. Besides, the “Change in cardiac pulsation” value in test [1] (3 mg/kg) is reported as -1.1 ± 1.1%; in test [1] (setting [7]) it was -48.9 ± 2.2%.
